Assay results as given in patent US20080312277A1, “Gpr41 and Modulators Thereof for the Treatment of Insulin-Related Disorders” (priority 2004, published 2008).

Tests used:
[1] = system: male C57b1/6 mice; test: Oral glucose tolerance test (oGTT); type: in vivo; settings: p.o. 30 min before oral dextrose 3 g/kg, FIG. 8
Procedure: For the oGTT, male C57b1/6 mice were fasted for about 18 hours and randomly grouped to receive the compounds indicated in FIG. 8 at the indicated doses, or vehicle (PET which contains 80% PEG, 10% Tween80, and 10% Ethanol). The indicated compound(s) were delivered orally via a gavage needle (p.o. volume at 100 μl). Thirty minutes after administration of the compound(s) or vehicle, mice were administered orally with dextrose at 3 g/kg dose. Levels of blood glucose were determined at several time points using Glucometer Elite XL (Bayer).

[2] = target: T1, GPR41 (Homo sapiens, UniProt O14843); settings: Brown et al., J. Biol. Chem. 278:11312-11319 (2003); cited from earlier work
T1 sequence (O14843 1-346): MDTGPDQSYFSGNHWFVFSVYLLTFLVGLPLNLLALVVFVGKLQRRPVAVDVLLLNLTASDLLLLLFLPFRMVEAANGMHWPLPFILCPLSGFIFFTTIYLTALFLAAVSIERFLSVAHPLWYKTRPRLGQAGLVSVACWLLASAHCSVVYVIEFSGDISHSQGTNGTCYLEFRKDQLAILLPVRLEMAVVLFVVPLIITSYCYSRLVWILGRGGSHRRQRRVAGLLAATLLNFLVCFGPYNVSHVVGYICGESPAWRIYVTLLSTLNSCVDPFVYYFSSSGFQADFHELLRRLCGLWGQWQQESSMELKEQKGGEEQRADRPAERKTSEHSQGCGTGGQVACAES

## CC1=C(C(=O)Nc2ccccc2C)C(c2ccoc2)C2=C(CCCC2=O)N1 (stereo not drawn) [Compound 4, 4-Furan-3-yl-2-methyl-5-oxo-1,4,5,6,7,8-hexahydro-quinoline-3-carboxylic acid o-tolylamide]
[1]; used in conjunction with Compound B111
  effect on the glycemic lowering effect of Compound B111 in the oGTT (plasma glucose): reversed the glycemic lowering effect of Compound B111

## CC(C)c1noc(C2CCN(c3ncnc(Nc4ccc(S(C)(=O)=O)cc4F)c3[N+](=O)[O-])CC2)n1 [Compound B111, (2-Fluoro-4-methanesulfonyl-phenyl)-{6-[4-(3-isopropyl-[1,2,4]oxadiazol-5-yl)-piperidin-1-yl]-5-nitro-pyrimidin-4-yl}-amine]
[1]; used alone
  glycemic effect in the oGTT: glycemic lowering effect

## CCC(=O)O [propionate]
[2]
  activation of GPR41: activated
